Data reported in US20240109930A1, “TRIAZOLYL-METHYL SUBSTITUTED ALPHA-D-GALACTOPYRANOSIDE DERIVATIVES” (Idorsia Pharmaceuticals Ltd, priority 2021, published 2024).
pIC50: −log10 of the molar value.

What was measured:
human Gal-3 (hGal-3) = human Gal-3 (hGal-3) (Homo sapiens (Human), UniProt P17931); assay: Competitive binding assay: biotinylated hGal-3 binding to microplate-adsorbed asialofetuin (ASF); details: IC50 values from several measurements given as geomean
How it was run: (§1)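 Biotinylated hGal-3 or hGal-1 (preferably cysteine-free Cys→Ser mutant), 300–1000 ng/mL, competes with compound for ASF-coated wells for 3 h at 4 °C. Bound lectin detected with streptavidin-peroxidase (80 ng/mL, 1 h, 4 °C) and ABTS by absorbance; IC50 reported as geomean of several runs.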

human Gal-1 (hGal-1) = human Gal-1 (hGal-1) (Homo sapiens, UniProt P09382, C131S/C17S/C43S/C61S/C89S); assay: Competitive binding assay: biotinylated hGal-1 binding to microplate-adsorbed asialofetuin (ASF); details: IC50 values from several measurements given as geomean
How it was run: as §1

Chain of human Gal-3 (hGal-3) (P17931 whole entry): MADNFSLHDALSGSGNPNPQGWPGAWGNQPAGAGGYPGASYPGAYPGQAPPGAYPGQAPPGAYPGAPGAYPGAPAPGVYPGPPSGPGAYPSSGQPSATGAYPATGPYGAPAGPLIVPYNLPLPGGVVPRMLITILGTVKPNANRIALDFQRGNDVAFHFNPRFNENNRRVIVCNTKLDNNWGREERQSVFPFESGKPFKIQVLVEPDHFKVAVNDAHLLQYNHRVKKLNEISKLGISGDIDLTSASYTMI

Structure (SMILES) | pIC50 (human Gal-3 (hGal-3)) | pIC50 (human Gal-1 (hGal-1))
CO[C@@H]1[C@@H](n2cc(-c3ccc(Cl)c(F)c3F)nn2)[C@@H](O)[C@@H](CO)O[C@@H]1Cn1cc(C2CC3(C2)CC(F)(F)C3)nn1 [Ex 2.2.84.] | 6.62 | 4.96
CO[C@@H]1[C@@H](n2cc(-c3ccc(Cl)c(F)c3F)nn2)[C@@H](O)[C@@H](CO)O[C@@H]1Cn1cc(C2(O)CCCC2)nn1 [Ex 2.2.33.] | 7.10 | 5.32
CO[C@@H]1[C@@H](n2cc(-c3ccc(Cl)c(F)c3F)nn2)[C@@H](O)[C@@H](CO)O[C@@H]1Cc1cn(C2CC3(CC3)C2)nn1 [Ex 2.1.26.] | 7.00 | 5.10
COCC1(n2cc(C[C@H]3O[C@H](CO)[C@H](O)[C@H](n4cc(-c5ccc(F)c(F)c5F)nn4)[C@H]3OC)nn2)CC1 [Ex 3.1.7., (2R,3R,4S,5R,6R)-2-(Hydroxymethyl)-5-methoxy-6-((1-(1-(methoxymethyl)cyclopropyl)-1H-1,2,3-triazol-4-yl)methyl)-4-(4-(2,3,4-trifluorophenyl)-1H-1,2,3-triazol-1-yl)tetrahydro-2H-pyran-3-ol] | 6.92 | 5.92
CO[C@@H]1[C@@H](n2cc(-c3ccc(C)c(F)c3F)nn2)[C@@H](O)[C@@H](CO)O[C@@H]1Cn1cc(C2(O)CCOCC2)nn1 [Ex 1.2.35.] | 7.15 | 5.35
CO[C@@H]1[C@@H](n2cc(-c3ccc(Br)c(F)c3F)nn2)[C@@H](O)[C@@H](CO)O[C@@H]1Cn1cc(C23CC(C2)C3)nn1 [Ex 4.2.12.] | 7.05 | 5.48
CO[C@@H]1[C@@H](n2cc(-c3ccc(Br)c(F)c3F)nn2)[C@@H](O)[C@@H](CO)O[C@@H]1Cn1cc(C(C)(C)O)nn1 [Ex 4.2.34.] | 7.00 | 5.26
CO[C@@H]1[C@@H](n2cc(-c3ccc(Cl)c(F)c3F)nn2)[C@@H](O)[C@@H](CO)O[C@@H]1Cn1cc([C@H]2C[C@@H](N)C2)nn1 [Ex 2.2.87.] | 6.92 | 5.15
CO[C@@H]1[C@@H](n2cc(-c3ccc(Cl)c(F)c3F)nn2)[C@@H](O)[C@@H](CO)O[C@@H]1Cc1cn(C2(CF)COC2)nn1 [Ex 2.1.52., (2R,3R,4S,5R,6R)-4-(4-(4-chloro-2,3-difluorophenyl)-1H-1,2,3-triazol-1-yl)-6-((1-(3-(fluoromethyl)oxetan-3-yl)-1H-1,2,3-triazol-4-yl)methyl)-2-(hydroxymethyl)-5-methoxytetrahydro-2H-pyran-3-ol [1-(1,2,3-tri-deoxy-2-methoxy-3-[4-(4-chloro-2,3-difluorophenyl)-1H-1,2,3-triazol-1-yl]-α-D-galacto-pyranose)-1-(1-(3-fluoromethyl-3-oxetanyl)-1H-triazol-4-yl)-methane]] | 7.70 | 6.19

The remaining compounds from weak to strong by pIC50 (human Gal-3 (hGal-3)), led by results:

pIC50 (human Gal-3 (hGal-3)) | pIC50 (human Gal-1 (hGal-1)) | Structure (SMILES)
7.22 | 5.46 | CO[C@@H]1[C@@H](n2cc(-c3ccc(Cl)c(F)c3F)nn2)[C@@H](O)[C@@H](CO)O[C@@H]1Cc1cn([C@@H]2CCC[C@H]2F)nn1 (relative stereo) [Example 2.1.79.CD, (2R,3R,4S,5R,6R)-4-(4-(4-chloro-2,3-difluorophenyl)-1H-1,2,3-triazol-1-yl)-6-((1-((1R*,2R*)-2-fluorocyclopentyl)-1H-1,2,3-triazol-4-yl)methyl)-2-(hydroxymethyl)-5-methoxytetrahydro-2H-pyran-3-ol]
7.22 | 5.66 | CO[C@@H]1[C@@H](n2cc(-c3ccc(Cl)c(F)c3F)nn2)[C@@H](O)[C@@H](CO)O[C@@H]1Cc1cn(C2CCC2(F)F)nn1 (single isomer, unassigned) [Example 2.1.63.A]
7.30 | 5.59 | CO[C@@H]1[C@@H](n2cc(-c3ccc(C)c(F)c3F)nn2)[C@@H](O)[C@@H](CO)O[C@@H]1Cc1cn(C2(CO)CCCC2)nn1 [Ex 1.1.5.]
7.30 | 5.83 | CO[C@@H]1[C@@H](n2cc(-c3ccc(Cl)c(F)c3F)nn2)[C@@H](O)[C@@H](CO)O[C@@H]1Cn1cc(C2(CO)CC2)nn1 [Ex 2.2.4.]
7.30 | 6.41 | CO[C@@H]1[C@@H](n2cc(-c3ccc(F)c(F)c3F)nn2)[C@@H](O)[C@@H](CO)O[C@@H]1Cc1cn(C2(C)CC2)nn1 [Ex 3.1.23.]
7.30 | 5.46 | CO[C@@H]1[C@@H](n2cc(-c3ccc(C)c(F)c3F)nn2)[C@@H](O)[C@@H](CO)O[C@@H]1Cc1cn(C2[C@H]3CCC[C@@H]23)nn1 (stereo partly shown) [Ex 1.1.20.]
7.40 | 5.53 | CO[C@@H]1[C@@H](n2cc(-c3ccc(C)c(F)c3F)nn2)[C@@H](O)[C@@H](CO)O[C@@H]1Cn1cc(C2(C)COC2)nn1 [Ex 1.2.6.]
7.40 | 5.59 | CO[C@@H]1[C@@H](n2cc(-c3ccc(C)c(F)c3F)nn2)[C@@H](O)[C@@H](CO)O[C@@H]1Cc1cn(C2(CO)CC2)nn1 [Ex 1.1.4.]
7.40 | 5.99 | CO[C@@H]1[C@@H](n2cc(-c3ccc(Cl)c(F)c3F)nn2)[C@@H](O)[C@@H](CO)O[C@@H]1Cc1cn(C2(C(F)(F)F)CCCC2)nn1 [Ex 2.1.67.]
7.52 | 6.03 | CO[C@@H]1[C@@H](n2cc(-c3ccc(Cl)c(F)c3F)nn2)[C@@H](O)[C@@H](CO)O[C@@H]1Cc1cn([C@@H]2CCCC2(F)F)nn1 [Example 2.1.64.A, (2R,3R,4S,5R,6R)-4-(4-(4-chloro-2,3-difluorophenyl)-1H-1,2,3-triazol-1-yl)-6-((1-((R)-2,2-difluorocyclopentyl)-1H-1,2,3-triazol-4-yl)methyl)-2-(hydroxymethyl)-5-methoxytetrahydro-2H-pyran-3-ol]
7.52 | 5.89 | CO[C@@H]1[C@@H](n2cc(-c3ccc(Br)c(F)c3F)nn2)[C@@H](O)[C@@H](CO)O[C@@H]1Cc1cn(C2(C(F)F)CC2)nn1 [Ex 4.1.51.]
7.70 | 6.89 | CO[C@@H]1[C@@H](n2cc(-c3ccc(F)c(F)c3F)nn2)[C@@H](O)[C@@H](CO)O[C@@H]1Cc1cn(C2(C(F)F)COC2)nn1 [Ex 3.1.53.]
7.70 | 6.51 | CO[C@@H]1[C@@H](n2cc(-c3ccc(F)c(F)c3F)nn2)[C@@H](O)[C@@H](CO)O[C@@H]1Cc1cn([C@@H]2CCOC[C@H]2F)nn1 (single isomer, unassigned) [Example 3.1.66.D, (2R,3R,4S,5R,6R)-6-((1-((3S*,4R*)-3-fluorotetrahydro-2H-pyran-4-yl)-1H-1,2,3-triazol-4-yl)methyl)-2-(hydroxymethyl)-5-methoxy-4-(4-(2,3,4-trifluorophenyl)-1H-1,2,3-triazol-1-yl)tetrahydro-2H-pyran-3-ol]
7.70 | 6.17 | CO[C@@H]1[C@@H](n2cc(-c3ccc(C)c(F)c3F)nn2)[C@@H](O)[C@@H](CO)O[C@@H]1Cc1cn([C@]2(C)C[C@H](O)C2)nn1 [Ex 1.1.19.]
